Test results from patent US8809538B2, “Piperidine-containing compounds and use thereof” (Array BioPharma Inc., priority 2009, dated 2014).

Tests used:
[1] = system: high fat-fed obese mice (C57BL/6-DIO); experiment: Assay of an anti-diabetic effect in DIO (diet-induced obese) mice; format: in vivo; conditions: oral, 30 or 100 mg/kg b.i.d. for 15 days, overnight fasting state, dose-dependently
From the text: (1) Assay of an Anti-Diabetic Effect of the Compounds in DIO (Diet-Induced Obese) Mice
Male, 12-weeks old high fat-fed obese mice (C57BL/6-DIO, Charles River Japan) were orally administered with the compounds of the present invention twice a day for 15 days. During the experiment, mice were provided high fat pellet diet (D12492, Research Diets) and tap water from bottle of feed water ad libitum. On the first day of the experiment, blood samples were collected from tail vein using a microcapillary to measure plasma glucose concentration. Based on plasma glucose concentration, mice were divided into some groups (five mice per group) and started dosing. The dosing was carried out by oral gavage, after suspending the compounds of the present invention in the previously described vehicle. The control group received only the vehicle. After 15 days from starting the dosing, plasma samples were collected from tail vein at overnight fasting state. Plasma glucose and insulin levels were measured with commercial kits (glucose, Glucose CH-Test Wako®, Wako Pure Chemical Industries, Ltd.; insulin, Rat Insulin ELISA Kit, Morinaga Institute of Biological Science Inc.).

Crl: CD(SD) rats = experiment: Evaluation of hepatic damage by the compounds in rats; format: in vivo; conditions: 100 mg/kg orally once daily for 4 days, blood at the day after the final dosing
Procedure: (3) Evaluation of Hepatic Damage by the Compounds in Rats
The compounds of the present invention were administered orally to male Crl: CD(SD) rats with four animals per group once daily for 4 days at dose levels of 0 (control) and 100 mg/kg to investigate hepatotoxicity. The compounds of the present invention were dissolved in 70% Wellsolve (solubilizer, Celeste Corporation) containing 30% DMSO (dimethyl sulfoxide) and administered orally at a dose volume of 10 mL/kg. The control group was treated with the vehicle at the same dosing volume.
Blood was drawn from the abdominal vein of each animal at the day after the final dosing. The plasma was separated by centrifugation at 13,684×g for 5 min at 4° C. The plasma concentration of aspartate aminotransferase (AST) and alanine aminotransferase (ALT), biochemical markers of hepatic damage, were measured.

[2] = system: rat transient focal cerebral ischemia model; experiment: Assay of a neuroprotective effect in the rat transient focal cerebral ischemia model (MCA occlusion); format: in vivo, Sprague Dawley rats; conditions: 120 min MCA occlusion, 100 mg/kg orally 1 hour before and 12 hours after MCA occlusion, evaluated at 24 hours after MCA occlusion
Procedure: (2) Assay of a Neuroprotective Effect of the Compound in the Rat Transient Focal Cerebral Ischemia Model.
Transient focal cerebral ischemia (120 min) was induced by intraluminal middle cerebral artery (hereinafter abbreviated to MCA) occlusion using the method of Koizumi et al., (in Japanese Journal of Stroke 1986; 8:1-8). Male Sprague Dawley rats (7 weeks old; Charles River Japan) were used. Under conditions of 30% oxygen and 70% air, the animals inhaled 2.5% halothane (Takeda Chemical Industries, Ltd.) through a halothane vaporizer (Shinano Works). Under the anesthesia, the left common carotid artery (hereinafter abbreviated to CCA), the external carotid artery (hereinafter abbreviated to ECA) and the internal carotid artery (hereinafter abbreviated to ICA) were isolated from surrounding connective tissue, then the CCA and the ECA were ligated with surgical thread. […] Immediately before MCA reperfusion neurological score of animals were observed using the method of Yonemori et al., (in J Cereb Blood Flow Metab 1996; 16: 973-80.) and animals that scored less than 5 were excluded due to insufficient occlusion. […]
At 24 hours after MCA occlusion, neurological score were evaluated. […] The cerebral infarct area was identified in scanned images and measured using image analysis software (Photoshop 5.5/NIH image 1.63) to determine the infarct area per slice. […]

SMILES | fasted plasma glucose level [1] | fasted plasma insulin level [1] | plasma alanine aminotransferase (ALT) level (Crl: CD(SD) rats) | plasma aspartate aminotransferase (AST) level (Crl: CD(SD) rats) | cerebral infarct volume [2] | neurological score [2]
CCOc1nc(C(=O)NCC2CCN(Cc3cnc(-c4ccccn4)s3)CC2)cc(N)c1C#N [Example 115, 4-amino-5-cyano-6-ethoxy-N-((1-((2-(pyridin-2-yl)thiazol-5-yl)methyl)piperidin-4-yl)methyl)picolinamide] | significantly decreased | significantly decreased | not increased | not increased | significant preventive effect | significant preventive effect
CCOc1nc(C(=O)NCC2CCN(Cc3sc(-c4ccccn4)nc3CN(C)C)CC2)cc(N)c1C#N [Example 118, 4-amino-5-cyano-N-((1-((4-((dimethylamino)methyl)-2-(pyridin-2-yl)thiazol-5-yl)methyl)piperidin-4-yl)methyl)-6-ethoxypicolinamide] |  |  | not increased | not increased |  | 
